In PMC9916685, “Discovery of Small Molecule COX-1 and Akt Inhibitors as Anti-NSCLC Agents Endowed with Anti-Inflammatory Action” (International Journal of Molecular Sciences, 2023):
One block for each compound: values may come before it.

Tests used:
COX-1 [1] = molecular target: T1, COX-1 (Ovis aries, UniProt P05979); experiment: COX (ovine) colorimetric inhibitor screening assay, COX-1; assay type: biochemical; settings: for IC50: ovine COX-1, colorimetric, triplicate, mean ± SD; for SI (IC50 for COX-1/IC50 for COX-2): selectivity index
T1 construct: purchased Cayman
T1 sequence (P05979 25-600): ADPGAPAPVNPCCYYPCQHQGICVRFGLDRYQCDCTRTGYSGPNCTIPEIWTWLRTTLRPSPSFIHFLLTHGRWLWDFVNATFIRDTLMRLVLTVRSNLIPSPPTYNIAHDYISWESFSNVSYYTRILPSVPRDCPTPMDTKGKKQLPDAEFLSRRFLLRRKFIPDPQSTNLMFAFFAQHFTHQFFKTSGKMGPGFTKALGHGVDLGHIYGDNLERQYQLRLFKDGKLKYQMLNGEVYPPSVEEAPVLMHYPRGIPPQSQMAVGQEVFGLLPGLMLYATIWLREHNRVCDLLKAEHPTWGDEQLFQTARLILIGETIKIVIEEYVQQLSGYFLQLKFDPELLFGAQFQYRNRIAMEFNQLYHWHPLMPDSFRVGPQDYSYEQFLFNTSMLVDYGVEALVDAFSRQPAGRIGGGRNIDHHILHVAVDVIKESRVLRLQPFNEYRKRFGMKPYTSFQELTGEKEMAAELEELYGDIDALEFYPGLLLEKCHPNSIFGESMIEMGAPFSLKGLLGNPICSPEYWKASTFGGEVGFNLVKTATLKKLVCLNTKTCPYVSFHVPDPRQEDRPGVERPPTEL
Protocol: (§1) COX (ovine) Colorimetric Inhibitor Screening Assay (Cayman, Ann Arbor, MI, USA) was conducted to detect the peroxidase component of COX-1 and COX-2 according to the manufacturer’s instructions. The assay was performed in triplicate. Half maximal inhibitory concentration (IC50) data (µM) were expressed as mean ± SD.

COX-2 [2] = molecular target: T2, COX-2 (Ovis aries, UniProt P79208); experiment: COX (ovine) colorimetric inhibitor screening assay, COX-2; assay type: biochemical; settings: ovine COX-2, colorimetric, triplicate, mean ± SD
T2 construct: purchased Cayman
T2 sequence (P79208 17-603): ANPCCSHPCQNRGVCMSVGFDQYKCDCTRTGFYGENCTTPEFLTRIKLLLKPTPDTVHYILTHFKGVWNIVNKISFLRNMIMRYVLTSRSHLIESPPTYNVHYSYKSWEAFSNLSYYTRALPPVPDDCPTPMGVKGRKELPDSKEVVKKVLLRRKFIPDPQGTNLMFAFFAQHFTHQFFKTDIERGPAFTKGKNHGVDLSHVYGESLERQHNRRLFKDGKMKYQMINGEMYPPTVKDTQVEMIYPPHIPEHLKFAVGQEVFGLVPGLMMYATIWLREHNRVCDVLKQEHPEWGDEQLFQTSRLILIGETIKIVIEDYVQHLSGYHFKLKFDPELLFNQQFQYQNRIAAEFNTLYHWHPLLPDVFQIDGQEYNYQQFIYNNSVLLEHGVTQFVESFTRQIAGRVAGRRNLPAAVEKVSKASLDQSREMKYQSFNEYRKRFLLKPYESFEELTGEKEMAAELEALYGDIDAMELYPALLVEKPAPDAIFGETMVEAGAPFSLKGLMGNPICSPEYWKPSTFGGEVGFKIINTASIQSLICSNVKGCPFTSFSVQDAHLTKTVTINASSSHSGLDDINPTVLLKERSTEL
Protocol: as §1

[3] = tested on: L929 mouse fibroblast (normal) cells; experiment: MTT cytotoxicity assay, L929 normal cells; assay type: cell-based; settings: for IC50: MTT, L929 mouse fibroblast cells, mean ± SD; for cytotoxicity against L929 cells at effective concentrations: in words, at concentrations effective for COX-1 inhibition
Protocol: (§2) A549 human lung adenocarcinoma and L929 mouse fibroblast cell lines were obtained from American Type Culture Collection (ATCC) (Manassas, VA, USA). Both cell lines were cultured, and drug treatments were carried out as previously reported.
(§3) MTT assay was conducted as previously explained in the literature with small modifications. Cisplatin was used as a positive control. The assay was performed in triplicate. IC50 data (µM) were expressed as mean ± SD.

[4] = tested on: A549 human lung adenocarcinoma cells; experiment: MTT cytotoxicity assay, A549 cells; assay type: cell-based; settings: mean ± SD
Protocol: as §2, §3

Akt [5] = experiment: Akt Colorimetric In-Cell ELISA in A549 cells; assay type: cell-based, human; settings: 24 h, mean ± SD, read-out: Akt inhibition IC50 in A549 cells
Protocol: The assay was performed in triplicate. IC50 data (µM) were expressed as mean ± SD.

myeloperoxidase (MPO) = experiment: LPS-induced sepsis model, serum MPO levels; assay type: in vivo, Sprague Dawley rats; settings: for change of MPO activity compared to the LPS group: in words, LPS-induced sepsis, rats; for MPO (U/L): rat serum, 24 h after LPS 1 mg/kg i.p., 3b, 4a 10 mg/kg/day, indomethacin 5 mg/kg by gastric intubation for six days, mean ± SD, n = 8
Protocol: (§4) Male albino Sprague Dawley rats (~250–300 g) were procured from the Medical and Surgical Experimental Animals Application and Research Center of Eskisehir Osmangazi University (ESOGU). In the animal house, the rats were housed in stainless steel cages under standard atmospheric conditions at 22 ± 1 °C and exposed to 12 h/12 h light/dark cycle. Food and water were given ad libitum. All experiments and protocols reported in this work were approved by ESOGU Animal Experiments Local Ethics Committee (10 December 2018/700).
(§5) Compounds 3b, 4a, and indomethacin (Sigma-Aldrich, St. Louis, MO, USA) were dissolved in 5% dimethyl sulfoxide (DMSO) and then diluted. The final DMSO concentration in the solution was 0.5% (v/v). The agents were administered by gastric intubation.
(§6) Rats were randomly divided into five groups (n = 8) as control group, LPS group, test groups (3b and 4a), and reference group. 0.5% DMSO was used as control solution for LPS group. Indomethacin (5 mg/kg) was used as a reference agent. Control group (Group I) was fed with basal rat chow throughout the experimental period. LPS group (Group II) was fed with basal rat chow for six days (only 0.5% DMSO was administered by gastric intubation) and LPS was injected intraperitoneally in 0.9% sodium chloride solution only once on the 7th day. Groups III, IV, and V were fed with basal rat chow and compound 3b (10 mg/kg/day), compound 4a (10 mg/kg/day), and indomethacin were administered, respectively, by gastric intubation for six days. Then, LPS was injected intraperitoneally in 0.9% sodium chloride solution only once on the 7th day for three groups as well. After 24 h of LPS injection, all rats were sacrificed by ketamine (80 mg/kg) ve xylazine (10 mg/kg) anesthesia via intraperitoneal route. Blood samples were collected via cardiac puncture in tubes containing gel for obtaining serum.
Suzuki’s assay was performed with slight modifications. The rate of MPO-catalyzed oxidation of 3,3′,5,5′-tetramethylbenzidine (TMB) was followed by recording the absorbance increase at 655 nm for 5 min. Taking into account the linear phase of the reaction, the absorbance change was measured per minute. The enzyme activity was expressed as the amount of the enzyme producing one absorbance change per minute under assay conditions.

nitric oxide (NO) = experiment: LPS-induced sepsis model, serum NO levels; assay type: in vivo, Sprague Dawley rats; settings: rat serum, 24 h after LPS; 3b, 4a 10 mg/kg/day, indomethacin 5 mg/kg by gastric intubation six days; n = 8
Protocol: as §4, §5, §6
Nitrate and nitrite, which represent the best index of the entire NO production, are the stable end products of NO in vivo. Nitrate in serum was assayed by a slight modification of the Cd-reduction method as reported by Cortas and Wakid.

[6] = LPS-induced sepsis model, serum ALT and AST levels; assay type: in vivo, Sprague Dawley rats; settings: rat serum, 24 h after LPS; 3b, 4a 10 mg/kg/day, indomethacin 5 mg/kg by gastric intubation six days; mean ± SD, n = 8
Protocol: as §4, §5, §6
Serum ALT and AST levels were determined using enzyme-based Roche Diagnostics kit in Roche Modular Systems analyzer by photometric assay based on the manufacturer’s instructions. The other serum samples were stored at −80 °C (Thermo Electron, Waltham, MA, USA) for subsequent analyses of MPO and NO levels.

A549 cells = experiment: Annexin V-FITC/PI flow cytometry-based apoptosis detection; settings: A549, 24 h; for percentage of A549 cells undergoing apoptosis (early and late): sum of early and late
COX-1 [7] = settings: cited from earlier work
COX-2 [8] = settings: cited from earlier work
Akt [9] = tested on: Akt; set-up: method as in doi:10.2174/1570180817999200618163507; settings: 5RP7 H-ras oncogene transformed rat embryonic fibroblast cell line; cited from earlier work

IC50 (COX-1 [1]): 8.9 ± 0.14 µM | SI (IC50 for COX-1/IC50 for COX-2) (COX-1 [1]): 0.13 | IC50 (COX-2 [2]): 71 ± 1.41 µM | IC50 (Akt [5]): 32.5 ± 4.95 µM | melting point: 306 to 307 °C
SMILES: O=C(Cc1c[nH]c2ccccc12)NN=Cc1ccc(N2CCOCC2)cc1 [Compound 3b, 2-(1H-Indol-3-yl)-N′-(4-morpholinobenzylidene)acetohydrazide]
IC50 [3]: 177 ± 5.77 µM | cytotoxicity against L929 cells at effective concentrations [3]: did not show cytotoxicity | IC50 ([4]; Homo sapiens): 89.7 ± 10.8 µM | change of MPO activity compared to the LPS group (myeloperoxidase (MPO)): slightly decreased | MPO (U/L) (myeloperoxidase (MPO)): 1.50 ± 0.81 U/L | NO level, 25% Percentile (nitric oxide (NO)): 0.316 µmol/L | NO level, 75% Percentile (nitric oxide (NO)): 2.772 µmol/L | NO level, Median (nitric oxide (NO)): 0.667 µmol/L | ALT (U/L) [6]: 50.25 ± 21.86 U/L | AST (U/L) [6]: 114.90 ± 22.04 U/L | Early Apoptosis (%) (A549 cells; compound at IC50): 6.84% | Late Apoptosis (%) (A549 cells; compound at IC50): 6.01% | Necrosis (%) (A549 cells; compound at IC50): 0.48% | Early Apoptosis (%) (A549 cells; compound at IC50/2): 5.89% | Late Apoptosis (%) (A549 cells; compound at IC50/2): 5.78% | Necrosis (%) (A549 cells; compound at IC50/2): 0.36% | percentage of A549 cells undergoing apoptosis (early and late) (A549 cells; compound at IC50/2): 11.67% | percentage of A549 cells undergoing apoptosis (early and late) (A549 cells; compound at IC50): 12.85%

SMILES: N#Cc1ccc(Oc2ccc(C=NNC(=S)Nc3ccc(S(=O)(=O)N4CCCCC4)cc3)cc2)cc1 [4-[4-(piperidin-1-ylsulfonyl)phenyl]-1-[4-(4-cyanophenoxy)benzylidene]thiosemicarbazide]
IC50 (COX-1 [7]): 1.89 µM

SMILES: N#Cc1ccc(C(=O)C=Cc2c[nH]c3ccc(Br)cc23)cc1 [3-(5-bromo-1H-indol-3-yl)-1-(4-cyanophenyl)prop-2-en-1-one]
COX-1 IC50 (COX-1 [7]): 8.10 µg/mL | COX-2 IC50 (COX-2 [8]): 9.50 µg/mL

SMILES: O=[N+]([O-])c1ccc(Oc2ccc(C=NNC(=S)Nc3ccc(S(=O)(=O)N4CCCCC4)cc3)cc2)cc1 [4-[4-(piperidin-1-ylsulfonyl)phenyl]-1-[4-(4-nitrophenoxy)benzylidene]thiosemicarbazide]
IC50 (COX-1 [7]): 13.4 µM | IC50 (COX-2 [8]): 12.6 µM

SMILES: N.N.[Cl][Pt][Cl] [Cisplatin, reference compound]
IC50 [4]: 22.7 ± 4.04 µM | IC50 (Akt [5]): 9.3 ± 2.55 µM | Early Apoptosis (%) (A549 cells; compound at IC50): 2.43% | Late Apoptosis (%) (A549 cells; compound at IC50): 2.03% | Necrosis (%) (A549 cells; compound at IC50): 2.34% | Early Apoptosis (%) (A549 cells; compound at IC50/2): 3.69% | Late Apoptosis (%) (A549 cells; compound at IC50/2): 2.88% | Necrosis (%) (A549 cells; compound at IC50/2): 0.72% | percentage of A549 cells undergoing apoptosis (early and late) (A549 cells; compound at IC50/2): 6.57% | percentage of A549 cells undergoing apoptosis (early and late) (A549 cells; compound at IC50): 4.46%

SMILES: COc1ccc2[nH]cc(C=CC(=O)c3ccc(S(C)(=O)=O)cc3)c2c1 [3-(5-methoxy-1H-indol-3-yl)-1-(4-(methylsulfonyl)phenyl)prop-2-en-1-one]
COX-1 IC50 (COX-1 [7]): 8.60 µg/mL

SMILES: COc1ccc2c(c1)c(CC(=O)O)c(C)n2C(=O)c1ccc(Cl)cc1 [Indomethacin, reference compound]
MPO (U/L) (myeloperoxidase (MPO)): 1.06 ± 0.73 U/L | NO level, 25% Percentile (nitric oxide (NO)): 0.667 µmol/L | NO level, 75% Percentile (nitric oxide (NO)): 3.123 µmol/L | NO level, Median (nitric oxide (NO)): 1.281 µmol/L | ALT (U/L) [6]: 44.00 ± 14.64 U/L | AST (U/L) [6]: 123.50 ± 32.14 U/L

SMILES: COc1ccc(-c2ccnc(SCC(=O)NN=Cc3ccccc3)n2)cc1 [N′-benzylidene-2-[(4-(4-methoxyphenyl)pyrimidin-2-yl)thio]acetohydrazide]
inhibition of Akt IC50 (Akt [9]): 0.50 µg/mL

IC50 (COX-1 [1]): 10 ± 0.13 µM | SI (IC50 for COX-1/IC50 for COX-2) (COX-1 [1]): 0.13 | IC50 (COX-2 [2]): 76.5 ± 6.36 µM | IC50 (Akt [5]): 45.3 ± 6.51 µM | melting point: 187 to 189 °C
SMILES: O=C(Cc1c[nH]c2ccccc12)NNC(=S)Nc1ccc(Br)cc1 [Compound 4a, 4-(4-Bromophenyl)-1-[2-(1H-indol-3-yl)acetyl]thiosemicarbazide]
IC50 [3]: 84 ± 19.7 µM | cytotoxicity against L929 cells at effective concentrations [3]: did not show cytotoxicity | IC50 ([4]; Homo sapiens): 179 ± 77.6 µM | change of MPO activity compared to the LPS group (myeloperoxidase (MPO)): significantly decreased | MPO (U/L) (myeloperoxidase (MPO)): 0.84 ± 0.26 U/L | NO level, 25% Percentile (nitric oxide (NO)): 1.369 µmol/L | NO level, 75% Percentile (nitric oxide (NO)): 4.0 µmol/L | NO level, Median (nitric oxide (NO)): 2.509 µmol/L | ALT (U/L) [6]: 48.29 ± 26.88 U/L | AST (U/L) [6]: 132.30 ± 37.06 U/L | Early Apoptosis (%) (A549 cells; compound at IC50/2): 7.07% | Late Apoptosis (%) (A549 cells; compound at IC50/2): 6.62% | Necrosis (%) (A549 cells; compound at IC50/2): 0.60% | Early Apoptosis (%) (A549 cells; compound at IC50/4): 7.34% | Late Apoptosis (%) (A549 cells; compound at IC50/4): 5.19% | Necrosis (%) (A549 cells; compound at IC50/4): 0.37%
